{
  "source": "patent US20060045910A1",
  "about": "“Preserved fusogenic vesicles” (priority 2004, published 2006)",
  "system": "rat cardiomyocyte cells",
  "experiment": "Uptake of ATP by rat cardiomyocyte cells (FIG. 5)",
  "format": "cell-based",
  "description": "While not wishing to be bound by any specific theory, it is currently believed that the dehydration of the vesicles that occurs during freeze-drying causes more ATP to enter the fusogenic vesicles. In this manner, the preserved and re-hydrated fusogenic vesicles may contain a higher concentration of ATP than their unpreserved counterparts.",
  "data": [
    {"smiles": "Nc1ncnc2c1ncn2[C@@H]1O[C@H](COP(=O)(O)OP(=O)(O)OP(=O)(O)O)[C@@H](O)[C@H]1O", "note": "[unencapsulated ATP, adenosine triphosphate]", "values": [
      {"measurement": "uptake of ATP by cells", "result": "barely absorbed"}
    ]}
  ]
}
